Molecular target: T1, Glucocorticoid Receptor (GR) (Homo sapiens, UniProt P04150)
T1 construct: purchased Invitrogen P2816
T1 sequence (P04150 1-777): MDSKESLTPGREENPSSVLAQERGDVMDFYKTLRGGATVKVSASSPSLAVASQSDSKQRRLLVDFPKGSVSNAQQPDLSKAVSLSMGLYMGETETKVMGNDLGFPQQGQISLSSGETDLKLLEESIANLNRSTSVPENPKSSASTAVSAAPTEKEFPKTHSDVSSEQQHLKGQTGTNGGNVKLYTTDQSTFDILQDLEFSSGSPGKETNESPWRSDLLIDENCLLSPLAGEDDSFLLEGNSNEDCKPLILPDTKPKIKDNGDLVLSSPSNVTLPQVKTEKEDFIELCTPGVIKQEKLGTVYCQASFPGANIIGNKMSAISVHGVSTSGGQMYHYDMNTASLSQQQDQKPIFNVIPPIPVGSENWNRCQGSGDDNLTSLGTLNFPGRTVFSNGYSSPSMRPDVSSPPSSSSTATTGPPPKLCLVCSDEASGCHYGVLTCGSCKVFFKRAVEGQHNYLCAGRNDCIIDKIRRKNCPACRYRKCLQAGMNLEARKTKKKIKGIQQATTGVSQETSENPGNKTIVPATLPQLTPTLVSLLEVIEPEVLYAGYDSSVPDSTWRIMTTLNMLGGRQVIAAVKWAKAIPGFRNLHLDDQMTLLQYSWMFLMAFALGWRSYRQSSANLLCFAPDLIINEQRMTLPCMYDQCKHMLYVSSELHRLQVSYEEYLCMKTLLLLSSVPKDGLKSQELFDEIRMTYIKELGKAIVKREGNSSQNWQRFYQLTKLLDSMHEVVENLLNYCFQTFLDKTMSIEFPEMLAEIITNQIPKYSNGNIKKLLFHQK
Test: GR receptor competitor assay by fluorescence polarization (Invitrogen GR competitor assay kit, cat No. P2816)
Conditions: 20 μM test compound solution, 10 μL per well plus 5 μL 4×GS1 and 5 μL 4×GR solution; recombinant human GR; 2 to 4 hours at room temperature; a ratio of 100% or more is indicated by 100%; read-out: GR Binding ratio (%)
Procedure: A detailed explanation of this matter will be described in the section of “Pharmacological Test” in Examples described below. In order to find the usefulness of the present compound as a pharmaceutical, a glucocorticoid receptor competitor assay was carried out by a fluorescence polarization method by using a glucocorticoid receptor competitor assay kit (manufactured by Invitrogen, cat No P2816) to study the glucocorticoid receptor binding activity of the present compound.
1. Evaluation Test for Binding Activity to Glucocorticoid Receptor (Hereinafter Referred to as “GR”)
In order to evaluate a binding activity to GR, a receptor competitor assay was carried out by a fluorescence polarization method. In the assay, a GR competitor assay kit (manufactured by Invitrogen, cat No. P2816) was used, and a procedure was carried out according to the protocol attached to the kit. Hereinafter, the specific method will be described.
(Preparation of Reagents)
GR screening buffer: A buffer containing 10 mM potassium phosphate (pH 7.4), 20 mM sodium molybdate (Na2MoO4), 0.1 mM ethylene diamine tetraacetic acid (EDTA), 5 mM dithiothreitol (DTT), 0.1 mM stabilizing peptide and 2% dimethylsulfoxide was prepared.
4×GS1 solution: Fluormone™ GS1, which is a fluorescent glucocorticoid ligand, was diluted with GR screening buffer, whereby a 4 nM solution was prepared.
4×GR solution: Recombinant human GR was diluted with GR screening buffer, whereby a 16 nM solution was prepared.
(Preparation of Test Compound Solution)
After a test compound was dissolved in dimethylsulfoxide, the resulting solution was diluted with GR screening buffer, whereby a 20 μM test compound solution was prepared.
(Test Method and Measurement Method)
1) The test compound solution was added in an amount of 10 μL into each well of a 384-well plate, and then, 4×GS1 solution and 4×GR solution were added in an amount of 5 μL into each well, respectively.
2) The plate was incubated in a dark place at room temperature for 2 to 4 hours.
3) By using a multimode plate reader, Analyst™ HT (manufactured by LJL Biosystems), fluorescence polarization of each well was measured. As the blank, a well containing GR screening buffer in place of the test compound and 4×GS1 solution was used.
4) The same procedure as that in the above 1) to 3) was carried out except that GR screening buffer was used in place of the test compound solution, and the obtained result was taken as the negative control.
5) The same procedure as that in the above 1) to 3) was carried out except that 2 mM dexamethasone was used in place of the test compound solution, and the obtained result was taken as the positive control.
(Calculation Equation of GR Binding Ratio)
A GR binding ratio (%) was calculated from the following equation. GR binding ratio (%)=100×[1−(fluorescence polarization of test compound solution−fluorescence polarization of positive control solution)/(fluorescence polarization of negative control solution−fluorescence polarization of positive control solution)] (Test Results and Discussion)

| SMILES | inhibition at 10 µM |
| --- | --- |
| COc1cc(OC(=O)c2cccc(F)c2)ccc1-c1ccc2c(c1COc1cc(F)ccc1C)C(C)=CC(C)(C)N2 [Compound 1-60, 6-[4-(3-Fluorobenzoyloxy)-2-methoxyphenyl]-5-(5-fluoro-2-methylphenoxymethyl)-2,2,4-trimethyl-1,2-dihydroquinoline] | 100% |
| COc1ccc(C(=O)Oc2ccc(-c3ccc4c(c3COc3cc(F)ccc3C)C(C)=CC(C)(C)N4)c(OC)c2)cc1 [Compound 1-6] | 100% |
| C=CC(=O)Oc1ccc(-c2ccc3c(c2COc2cc(F)ccc2C)C(C)=CC(C)(C)N3)c(OC)c1 [Compound 1-17, 6-(4-Acryloyloxy-2-methoxyphenyl)-5-(5-fluoro-2-methylphenoxymethyl)-2,2,4-trimethyl-1,2-dihydroquinoline] | 100% |
| COc1cc(OC(=O)c2cnccc2C)ccc1-c1ccc2c(c1COc1cc(F)ccc1C)C(C)=CC(C)(C)N2 [Compound 1-70, 5-(5-Fluoro-2-methylphenoxymethyl)-6-[2-methoxy-4-(4-methylpyridin-3-ylcarbonyloxy)phenyl]-2,2,4-trimethyl-1,2-dihydroquinoline] | 100% |
| COc1cc(OC(=O)c2ccsc2)ccc1-c1ccc2c(c1COc1cc(F)ccc1C)C(C)=CC(C)(C)N2 [Compound 1-18, 5-(5-Fluoro-2-methylphenoxymethyl)-6-[2-methoxy-4-(thiophen-3-ylcarbonyloxy)phenyl]-2,2,4-trimethyl-1,2-dihydroquinoline] | 100% |
| COc1cc(OC(=O)c2cccnc2OC)ccc1-c1ccc2c(c1COc1cc(F)ccc1C)C(C)=CC(C)(C)N2 [Compound 1-125, 5-(5-Fluoro-2-methylphenoxymethyl)-6-[2-methoxy-4-(2-methoxypyridin-3-ylcarbonyloxy)phenyl]-2,2,4-trimethyl-1,2-dihydroquinoline] | 100% |
| COc1cc(OC(=O)Cc2ccccc2)ccc1-c1ccc2c(c1COc1cc(F)ccc1C)C(C)=CC(C)(C)N2 [Compound 1-21, 5-(5-Fluoro-2-methylphenoxymethyl)-6-(2-methoxy-4-phenylacetoxyphenyl)-2,2,4-trimethyl-1,2-dihydroquinoline] | 100% |
| COc1ccc([N+](=O)[O-])cc1OCc1c(-c2ccc(OC(=O)N3CCOCC3)cc2OC)ccc2c1C(C)=CC(C)(C)N2 [Compound 6-28, 6-[2-Methoxy-4-(morpholin-4-ylcarbonyloxy)phenyl]-5-(2-methoxy-5-nitrophenoxymethyl)-2,2,4-trimethyl-1,2-dihydroquinoline] | 100% |
| COc1cc(OS(=O)(=O)C(C)C)ccc1-c1ccc2c(c1COc1cc(F)ccc1C)C(C)=CC(C)(C)N2 [Compound 4-13, 5-(5-Fluoro-2-methylphenoxymethyl)-6-(4-isopropylsulfonyloxy-2-methoxyphenyl)-2,2,4-trimethyl-1,2-dihydroquinoline] | 89% |
| CCCC(=O)Oc1ccc(-c2ccc3c(c2COc2cc(F)ccc2C)C(C)=CC(C)(C)N3)c(OC)c1 [Compound 1-14, 6-(4-Butyryloxy-2-methoxyphenyl)-5-(5-fluoro-2-methylphenoxymethyl)-2,2,4-trimethyl-1,2-dihydroquinoline] | 100% |
| COc1cc(OC(=O)c2cccs2)ccc1-c1ccc2c(c1COc1cc(F)ccc1C)C(C)=CC(C)(C)N2 [Compound 1-31, 5-(5-Fluoro-2-methylphenoxymethyl)-6-[2-methoxy-4-(thiophen-2-ylcarbonyloxy)phenyl]-2,2,4-trimethyl-1,2-dihydroquinoline] | 100% |
| COc1ccc(NC(=O)Oc2ccc(-c3ccc4c(c3COc3cc(F)ccc3C)C(C)=CC(C)(C)N4)c(OC)c2)cc1 [Compound 6-13, 5-(5-Fluoro-2-methylphenoxymethyl)-6-[2-methoxy-4-(4-methoxyphenylaminocarbonyloxy)phenyl]-2,2,4-trimethyl-1,2-dihydroquinoline] | 100% |

Source: US8440660B2 (Santen Pharmaceutical Co., Ltd., priority 2006, dated 2013)
